Data published in patent US20230022575A1, “BACTERIAL CONJUGATIVE SYSTEM AND THERAPEUTIC USES THEREOF” (SOCIÉTÉ DE COMMERCIALISATION DES PRODUITS DE LA RECHERCHE …, priority 2018, published 2023).
Converted amounts (≈) assume the structure as drawn.

How the values were obtained:
[1] = system: endogenous Enterobacteriaceae; experiment: Streptomycin treatment and EcN (KN01) colonization of the murine gut; assay type: in vivo, mouse; conditions: 1 g/L of Sm in drinking water, mice
Procedure: FIGS. 3.A to G. Streptomycin (Sm) treatment improves mouse gut colonization by Escherichia coli Nissle 1917 (EcN). The ability of different Sm concentrations to deplete endogenous Enterobacteriaceae (white area) and to promote EcN colonization (gray area) was evaluated by quantifying CFU in feces from mice treated with 0 mg/L (FIG. 3.A), 50 mg/L (FIG. 3.B), 100 mg/L (FIG. 3.C), 250 mg/L (FIG. 3.D), 450 mg/L (FIG. 3.E) and 1000 mg/L (FIG. 3.F) in drinking water starting at day −2. The colonization levels of KN01 in several sections of the intestinal tract of untreated (0) and streptomycin-treated ( ) mice was evaluated (FIG. 3.G). […]
Mouse model. All mice-related protocols were designed in compliance with our institution Animal Care Comity Guidelines and were strictly evaluated to avoid animal suffering. […] Animal weight and health was monitored daily throughout each experiment. […] For Sm treated mice groups, Sm working concentration was first evaluated to maximize Enterobacteriaceae clearance and EcN colonization (Kotula et al., 2014). […] Bacterial load was monitored in feces sampling at specified time points. […] Animals were then dissected to reveal the colonization pattern and gut bacterial content was evaluated by CFU. […]
Feces and tissues processing. […] CFUs/mg sample were calculated as a function of the sample measured weight. […]

EcN = experiment: Minimal inhibitory concentration (MIC) of EcN strains; assay type: cell-based, Escherichia coli Nissle 1917; conditions: Escherichia coli; strain EcN
KN02 = experiment: as above; assay type: cell-based, Escherichia coli Nissle 1917; conditions: Escherichia coli, read-out: Minimal inhibitory concentration (MIC)
KN01 = experiment: as above; assay type: cell-based, Escherichia coli Nissle 1917; conditions: Escherichia coli, read-out: Minimal inhibitory concentration (MIC)

| Structure (SMILES) | Enterobacteriaceae clearance and KN01 colonization [1] | MIC (EcN) | MIC (KN02) | MIC (KN01) |
| --- | --- | --- | --- | --- |
| [H]/N=C(/N)N[C@H]1[C@H](O)[C@@H](O)[C@H](O[C@@H]2O[C@@H](C)[C@](O)(C=O)[C@H]2O[C@@H]2O[C@@H](CO)[C@H](O)[C@@H](O)[C@@H]2NC)[C@@H](N/C(N)=N\[H])[C@@H]1O [Sm, streptomycin] | cleared Enterobactericeae while allowing stable colonization of the KN01 strain | 25 µg/mL (≈ 43 µM) | > 1600 µg/mL | 800 µg/mL (≈ 1380 µM) |
| CN[C@@H]1[C@H](O)[C@H](NC)[C@H]2O[C@@]3(O)C(=O)C[C@@H](C)O[C@H]3O[C@@H]2[C@H]1O [Sp, spectinomycin] | – | 50 µg/mL (≈ 150 µM) | – | 3000 µg/mL (≈ 9030 µM) |
| O=C(N[C@H](CO)[C@H](O)c1ccc([N+](=O)[O-])cc1)C(Cl)Cl [Cm, chloramphenicol] | – | < 8 µg/mL | 264 µg/mL (≈ 817 µM) | < 8 µg/mL |
| CC1(C)S[C@@H]2[C@H](NC(=O)[C@H](N)c3ccccc3)C(=O)N2[C@H]1C(=O)O [Ap, ampicillin] | – | < 25 µg/mL | < 25 µg/mL | < 25 µg/mL |
